Test results: ChEMBL document CHEMBL1201862, “PubChem BioAssay data set” (2004)
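Tested at 5 concentrations; 48 h exposure; 96-well plates; endpoints linearly interpolated, else capped at highest concentration. GI50 is the concentration that inhibits growth by half.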 Active and inactive are the calls of the source. No stated cut-off is given here; in the data, active = GI50 up to about 1.1 µM and inactive = higher.

Assays:
Assay in all cases: NCI-60 cell line screen, 48 h
[1] = tested on: HOP-92
[2] = tested on: OVCAR-3
[3] = tested on: SK-MEL-5
[4] = tested on: BT-549
[5] = tested on: K562
[6] = tested on: NCI-H226
[7] = tested on: CAKI-1
[8] = tested on: UO-31
[9] = tested on: MDA-MB-435
[10] = tested on: A549
[11] = tested on: LOX IMVI
[12] = tested on: KM12
[13] = tested on: U-251
[14] = tested on: RPMI-8226
[15] = tested on: TK-10
[16] = tested on: MOLT-4
[17] = tested on: HL-60
[18] = tested on: SR
[19] = tested on: SK-OV-3
[20] = tested on: SF-539

**Q.** Which results are given for Cc1ccc2c(c1)-c1nc(N)c(C#N)c(-c3ccccc3)c1CCS2(=O)=O?
**A.** GI50 [1]: 26.4 µM (inactive); GI50 [2]: 29.5 µM (inactive); GI50 [3]: > 100 µM (inactive); GI50 [4]: 36.4 µM (inactive); GI50 [5]: > 100 µM (inactive); GI50 [6]: 24.3 µM (inactive); GI50 [7]: 49.3 µM (inactive); GI50 [8]: > 100 µM (inactive); GI50 [9]: > 100 µM (inactive); GI50 [10]: 55 µM (inactive); GI50 [11]: > 100 µM (inactive); GI50 [12]: > 100 µM (inactive); GI50 [13]: 32.5 µM (inactive); GI50 [14]: > 100 µM (inactive); GI50 [15]: 23.7 µM (inactive)

**Q.** How did the GI50 [2] turn out when S=C1CSc2c(cnc3ccccc23)N1 was run?
**A.** > 100 µM (inactive)

**Q.** What about the GI50 [3] of the same compound?
**A.** > 100 µM (inactive)

**Q.** What about the GI50 [16] of the same compound?
**A.** > 100 µM (inactive)

**Q.** And the GI50 [4]?
**A.** 71.4 µM (inactive)

**Q.** And the GI50 [17]?
**A.** > 100 µM (inactive)

**Q.** What about the GI50 [5] of the same compound?
**A.** > 100 µM (inactive)

**Q.** What about the GI50 [6] of the same compound?
**A.** 53.7 µM (inactive)

**Q.** And the GI50 [7]?
**A.** 78.7 µM (inactive)

**Q.** And the GI50 [8]?
**A.** 65.6 µM (inactive)

**Q.** What about the GI50 [9] of the same compound?
**A.** > 100 µM (inactive)

**Q.** What about the GI50 [10] of the same compound?
**A.** > 100 µM (inactive)

**Q.** What about the GI50 [11] of the same compound?
**A.** > 100 µM (inactive)

**Q.** And the GI50 [12]?
**A.** > 100 µM (inactive)

**Q.** And the GI50 [13]?
**A.** > 100 µM (inactive)

**Q.** And the GI50 [18]?
**A.** > 100 µM (inactive)

**Q.** And the GI50 [14]?
**A.** > 100 µM (inactive)

**Q.** And the GI50 [19]?
**A.** > 100 µM (inactive)

**Q.** And the GI50 [15]?
**A.** 35.1 µM (inactive)

**Q.** Which results are given for CN(CCSCCN(C)C(=O)OC(C)(C)C)C(=O)OC(C)(C)C?
**A.** GI50 [1]: > 100 µM (inactive); GI50 [2]: > 100 µM (inactive); GI50 [3]: > 100 µM (inactive); GI50 [16]: > 100 µM (inactive); GI50 [20]: > 100 µM (inactive); GI50 [4]: > 100 µM (inactive); GI50 [5]: > 100 µM (inactive); GI50 [7]: > 100 µM (inactive); GI50 [8]: > 100 µM (inactive); GI50 [9]: > 100 µM (inactive); GI50 [10]: > 100 µM (inactive); GI50 [11]: > 100 µM (inactive); GI50 [12]: > 100 µM (inactive); GI50 [13]: > 100 µM (inactive); GI50 [18]: > 100 µM (inactive); GI50 [19]: > 100 µM (inactive); GI50 [15]: > 100 µM (inactive)

**Q.** Which GI50 [1] does the source give for COC(=O)CC(c1ccccc1)C(C#N)(OP1(=O)OC(c2ccccc2)C(C)N1C)c1ccccc1 (stereo unspecified) here?
**A.** 94 µM (inactive)

**Q.** And the GI50 [2]?
**A.** 77.1 µM (inactive)

**Q.** What about the GI50 [3] of the same compound?
**A.** 19 µM (inactive)

**Q.** And the GI50 [16]?
**A.** 19.5 µM (inactive)

**Q.** And the GI50 [4]?
**A.** 64.4 µM (inactive)

**Q.** And the GI50 [17]?
**A.** 26.2 µM (inactive)

**Q.** And the GI50 [5]?
**A.** 26.2 µM (inactive)

**Q.** And the GI50 [7]?
**A.** 72.1 µM (inactive)

**Q.** What about the GI50 [8] of the same compound?
**A.** 11.1 µM (inactive)

**Q.** And the GI50 [9]?
**A.** 43.4 µM (inactive)

**Q.** And the GI50 [10]?
**A.** 35.2 µM (inactive)

**Q.** What about the GI50 [11] of the same compound?
**A.** 59.3 µM (inactive)

**Q.** And the GI50 [12]?
**A.** 35 µM (inactive)

**Q.** And the GI50 [13]?
**A.** 54.1 µM (inactive)

**Q.** What about the GI50 [14] of the same compound?
**A.** 24.7 µM (inactive)

**Q.** What about the GI50 [19] of the same compound?
**A.** > 100 µM (inactive)

**Q.** What about the GI50 [15] of the same compound?
**A.** > 100 µM (inactive)

**Q.** For [N-]=[N+]=Nc1cc(=O)[nH]c2ccccc12, which GI50 [1] is on record?
**A.** 85.3 µM (inactive)

**Q.** And the GI50 [2]?
**A.** 65.2 µM (inactive)

**Q.** What about the GI50 [3] of the same compound?
**A.** > 100 µM (inactive)

**Q.** And the GI50 [16]?
**A.** 92.5 µM (inactive)

**Q.** And the GI50 [20]?
**A.** > 100 µM (inactive)

**Q.** What about the GI50 [4] of the same compound?
**A.** 83.2 µM (inactive)

**Q.** And the GI50 [5]?
**A.** > 100 µM (inactive)

**Q.** What about the GI50 [6] of the same compound?
**A.** 45.9 µM (inactive)

**Q.** And the GI50 [7]?
**A.** > 100 µM (inactive)

**Q.** What about the GI50 [8] of the same compound?
**A.** 31.4 µM (inactive)

**Q.** What about the GI50 [9] of the same compound?
**A.** > 100 µM (inactive)

**Q.** What about the GI50 [10] of the same compound?
**A.** > 100 µM (inactive)

**Q.** And the GI50 [12]?
**A.** > 100 µM (inactive)

**Q.** What about the GI50 [13] of the same compound?
**A.** > 100 µM (inactive)

**Q.** What about the GI50 [18] of the same compound?
**A.** 41.3 µM (inactive)

**Q.** What about the GI50 [14] of the same compound?
**A.** 81.8 µM (inactive)

**Q.** What about the GI50 [19] of the same compound?
**A.** 85.3 µM (inactive)

**Q.** And the GI50 [15]?
**A.** 53 µM (inactive)

**Q.** CCOC(=O)CCCn1nnc(C(=O)OCC)c1C(=O)OCC was tested. Which GI50 [1] did it give?
**A.** > 100 µM (inactive)

**Q.** What about the GI50 [3] of the same compound?
**A.** > 100 µM (inactive)

**Q.** And the GI50 [16]?
**A.** > 100 µM (inactive)

**Q.** What about the GI50 [20] of the same compound?
**A.** > 100 µM (inactive)

**Q.** And the GI50 [4]?
**A.** > 100 µM (inactive)

**Q.** And the GI50 [6]?
**A.** > 100 µM (inactive)

**Q.** And the GI50 [7]?
**A.** > 100 µM (inactive)

**Q.** What about the GI50 [8] of the same compound?
**A.** > 100 µM (inactive)

**Q.** And the GI50 [9]?
**A.** > 100 µM (inactive)

**Q.** What about the GI50 [10] of the same compound?
**A.** > 100 µM (inactive)

**Q.** And the GI50 [11]?
**A.** > 100 µM (inactive)

**Q.** And the GI50 [12]?
**A.** > 100 µM (inactive)

**Q.** What about the GI50 [13] of the same compound?
**A.** > 100 µM (inactive)

**Q.** What about the GI50 [18] of the same compound?
**A.** > 100 µM (inactive)

**Q.** And the GI50 [15]?
**A.** > 100 µM (inactive)

**Q.** With CCOC(=O)c1c[nH]c2c(Sc3ccccc3)nccc2c1=O as the compound, how does the GI50 [1] read?
**A.** 46.9 µM (inactive)

**Q.** What about the GI50 [2] of the same compound?
**A.** > 100 µM (inactive)

**Q.** What about the GI50 [3] of the same compound?
**A.** 92.7 µM (inactive)

**Q.** What about the GI50 [16] of the same compound?
**A.** 17.8 µM (inactive)

**Q.** What about the GI50 [20] of the same compound?
**A.** 77.8 µM (inactive)

**Q.** And the GI50 [4]?
**A.** 30.7 µM (inactive)

**Q.** And the GI50 [17]?
**A.** 27.5 µM (inactive)

**Q.** What about the GI50 [6] of the same compound?
**A.** 95.3 µM (inactive)

**Q.** What about the GI50 [7] of the same compound?
**A.** 41.3 µM (inactive)

**Q.** And the GI50 [8]?
**A.** 13.2 µM (inactive)

**Q.** And the GI50 [9]?
**A.** 39.6 µM (inactive)

**Q.** And the GI50 [10]?
**A.** 87.5 µM (inactive)

**Q.** And the GI50 [11]?
**A.** 31 µM (inactive)

**Q.** What about the GI50 [12] of the same compound?
**A.** 44.6 µM (inactive)

**Q.** And the GI50 [13]?
**A.** 44.4 µM (inactive)

**Q.** What about the GI50 [19] of the same compound?
**A.** > 100 µM (inactive)

**Q.** What about the GI50 [15] of the same compound?
**A.** > 100 µM (inactive)

**Q.** With CCN(CC)C(=S)SS(=O)(=O)c1ccccc1C(=O)O as the compound, how does the GI50 [1] read?
**A.** > 100 µM (inactive)

**Q.** What about the GI50 [2] of the same compound?
**A.** > 100 µM (inactive)

**Q.** What about the GI50 [3] of the same compound?
**A.** > 60.7 µM (inactive)

**Q.** What about the GI50 [16] of the same compound?
**A.** 0.933 µM (active)

**Q.** And the GI50 [20]?
**A.** > 100 µM (inactive)

**Q.** And the GI50 [4]?
**A.** > 100 µM (inactive)

**Q.** What about the GI50 [5] of the same compound?
**A.** > 100 µM (inactive)

**Q.** What about the GI50 [6] of the same compound?
**A.** > 46.7 µM (inactive)

**Q.** And the GI50 [7]?
**A.** > 78 µM (inactive)

**Q.** And the GI50 [8]?
**A.** > 94 µM (inactive)

**Q.** What about the GI50 [9] of the same compound?
**A.** > 100 µM (inactive)

**Q.** And the GI50 [10]?
**A.** 10.8 µM (inactive)

**Q.** And the GI50 [11]?
**A.** > 100 µM (inactive)

**Q.** And the GI50 [12]?
**A.** > 100 µM (inactive)

**Q.** And the GI50 [13]?
**A.** 99.8 µM (inactive)

**Q.** And the GI50 [18]?
**A.** 3.6 µM (inactive)

**Q.** And the GI50 [14]?
**A.** > 100 µM (inactive)

**Q.** What about the GI50 [19] of the same compound?
**A.** > 100 µM (inactive)

**Q.** What about the GI50 [15] of the same compound?
**A.** > 100 µM (inactive)
